Laboratory results from US12421225B2, “Heteroaromatic amide derivative and medicament containing the same” (KAKEN PHARMACEUTICAL CO., LTD., priority 2018, dated 2025).

target: human Nav1.7 (Homo sapiens (Human), UniProt Q15858); test: Human Nav1.7 inhibitory activity evaluation (automated patch clamp QPatch16X, HEK293A cells stably expressing human Nav1.7 and human Navβ1); type: cell-based; details: HEK293A cells stably expressing human Nav1.7 and human Navβ1, automated patch clamp QPatch16X
Method: Test Example 1: Human Nav1.7 Inhibitory Activity Evaluation
A cell line in which human Nav1.7 and human Navβ1 subunits were stably expressed in HEK293A cells was used. Dulbecco's Modified Eagle Medium (DMEM) supplemeted with 10% fetal bovine serum, 600 μg/ml geneticin, and 2 μg/ml blasticidin S were used as culture medium under the conditions of 37° C. and 5% CO2 in T175 flasks to carry out culturing. When 60-80% confluence was reached, the cells were detached and a cell suspension of about 0.5-5.0×10^6 cells/mL was prepared. The amount of current through human Nav1.7 was recorded using a fully automatic patch clamp device QPatch16X (Sophion Biosciences) at room temperature. As the extracellular solution, the solution of 145 mM NaCl, 4 mM KCl, 1 mM MgCl2, 2 mM CaCl2, 10 mM Glucose, 10 mM 4-(2-hydroxyethyl)-1-piperazine ethanesulfonic acid (HEPES) at pH 7.4 was used. As the intracellular solution, the solution of 135 mM CsF, ⅕ mM glycol ether diaminetetraacetic acid (EGTA)/CsOH, 10 mM HEPES, 10 mM NaCl at pH 7.3 was used. The test compounds were dissolved in dimethyl sulfoxide (DMSO) and diluted with the extracellular solution to attain the DMSO concentration of 0.1% at the time of assay.
The current response was obtained at a sampling frequency of 25 kHz, and noise was removed with a 3 kHz low-pass filter. The holding potential was −100 mV. Correction of the leakage current was carried out by applying a step pulse of −120 mV before the test pulse. In order to investigate inhibitory action of the test compound, the following test pulse was given: Namely, after depolarizing pulse of −10 mV was applied for 50 milliseconds, it was fixed at −120 mV for 500 milliseconds; a potential at which about 30-40% of the channel was inactivated was maintained for 15 seconds, then fixed again at −120 mV for 100 milliseconds, and finally a −10 mV depolarization pulse was given for 50 milliseconds. Test pulses were given before and after the test compound addition.
The inhibitory activity of the test compound was determined based on the amount of inward current generated by the second depolarization pulse, and the 50% inhibitory concentration (IC50) was calculated from the concentration-response curve.

human Nav1.7, sequence (Q15858 whole entry): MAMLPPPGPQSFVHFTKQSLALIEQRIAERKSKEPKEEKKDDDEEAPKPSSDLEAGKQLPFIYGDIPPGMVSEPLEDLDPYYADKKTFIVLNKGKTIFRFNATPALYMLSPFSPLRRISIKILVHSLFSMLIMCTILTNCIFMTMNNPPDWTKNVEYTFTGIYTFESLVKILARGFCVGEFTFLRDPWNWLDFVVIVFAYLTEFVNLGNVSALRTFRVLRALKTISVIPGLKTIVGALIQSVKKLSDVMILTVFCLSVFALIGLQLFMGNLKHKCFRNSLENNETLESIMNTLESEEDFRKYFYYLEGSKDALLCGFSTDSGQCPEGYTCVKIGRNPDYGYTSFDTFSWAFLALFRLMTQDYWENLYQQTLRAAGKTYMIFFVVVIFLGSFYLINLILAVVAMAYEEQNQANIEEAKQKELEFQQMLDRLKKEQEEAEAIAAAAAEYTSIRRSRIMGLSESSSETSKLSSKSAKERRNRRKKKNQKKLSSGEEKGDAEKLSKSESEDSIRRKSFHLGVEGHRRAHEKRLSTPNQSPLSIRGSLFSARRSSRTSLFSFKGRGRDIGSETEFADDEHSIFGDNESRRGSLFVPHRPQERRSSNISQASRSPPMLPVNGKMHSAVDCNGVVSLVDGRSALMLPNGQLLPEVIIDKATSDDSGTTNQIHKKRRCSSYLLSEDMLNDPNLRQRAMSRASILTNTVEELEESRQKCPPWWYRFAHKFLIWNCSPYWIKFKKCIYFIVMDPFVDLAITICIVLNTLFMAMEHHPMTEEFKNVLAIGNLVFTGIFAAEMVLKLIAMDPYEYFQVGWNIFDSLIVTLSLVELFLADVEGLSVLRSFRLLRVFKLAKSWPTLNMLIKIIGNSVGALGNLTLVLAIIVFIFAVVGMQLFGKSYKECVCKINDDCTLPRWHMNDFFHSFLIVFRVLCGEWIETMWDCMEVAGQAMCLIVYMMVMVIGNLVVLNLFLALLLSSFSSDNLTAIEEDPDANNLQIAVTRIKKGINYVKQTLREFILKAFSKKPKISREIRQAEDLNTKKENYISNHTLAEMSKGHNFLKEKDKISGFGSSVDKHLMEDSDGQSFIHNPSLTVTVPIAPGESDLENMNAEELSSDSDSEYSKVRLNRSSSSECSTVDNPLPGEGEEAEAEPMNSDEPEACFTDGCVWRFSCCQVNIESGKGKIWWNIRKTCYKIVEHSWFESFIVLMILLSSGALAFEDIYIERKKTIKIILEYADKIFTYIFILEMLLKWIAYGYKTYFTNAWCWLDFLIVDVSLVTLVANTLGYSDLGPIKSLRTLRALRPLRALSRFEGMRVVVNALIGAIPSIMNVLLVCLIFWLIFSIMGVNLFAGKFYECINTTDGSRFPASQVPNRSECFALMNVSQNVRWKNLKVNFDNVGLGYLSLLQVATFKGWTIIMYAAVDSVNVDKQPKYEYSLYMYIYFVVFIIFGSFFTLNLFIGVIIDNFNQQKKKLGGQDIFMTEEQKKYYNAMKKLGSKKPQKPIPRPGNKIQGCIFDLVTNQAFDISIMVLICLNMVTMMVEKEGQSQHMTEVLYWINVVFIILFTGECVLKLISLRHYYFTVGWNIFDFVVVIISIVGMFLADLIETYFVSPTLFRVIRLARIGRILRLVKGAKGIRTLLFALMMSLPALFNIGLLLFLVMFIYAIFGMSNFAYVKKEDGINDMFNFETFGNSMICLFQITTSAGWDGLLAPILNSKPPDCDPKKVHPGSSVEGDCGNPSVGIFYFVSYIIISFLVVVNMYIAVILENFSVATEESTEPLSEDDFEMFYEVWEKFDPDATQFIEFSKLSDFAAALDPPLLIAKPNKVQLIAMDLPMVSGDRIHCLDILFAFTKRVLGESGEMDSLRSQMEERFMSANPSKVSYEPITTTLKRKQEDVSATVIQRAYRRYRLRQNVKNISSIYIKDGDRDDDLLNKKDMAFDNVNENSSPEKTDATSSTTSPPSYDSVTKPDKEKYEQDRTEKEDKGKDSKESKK
human Nav1.7, sequence (Q07699 19-218 partner): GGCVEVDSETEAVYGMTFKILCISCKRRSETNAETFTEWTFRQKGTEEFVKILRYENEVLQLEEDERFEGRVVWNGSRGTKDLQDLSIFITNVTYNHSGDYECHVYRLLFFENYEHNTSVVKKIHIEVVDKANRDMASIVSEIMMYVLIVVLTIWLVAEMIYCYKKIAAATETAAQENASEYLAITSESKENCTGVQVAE

Row | Structure (SMILES) | IC50
1 | COc1cc(C2CCn3nc(C(=O)N[C@H]4COc5ccc(C#N)cc5C4)cc3O2)ccn1 (some centres unmarked) [Example 73] | < 10 µM
2 | C[C@H]1CCn2nc(C(=O)N[C@H]3COc4ccc(Br)cc4C3)cc2O1 [Example 88] | < 1 µM
3 | N#Cc1ccc(-c2ccc3c(c2)C[C@@H](NC(=O)c2cc4n(n2)CCC(COCC2CC2)O4)CO3)cn1 (some centres unmarked) [Example 107] | < 10 µM
4 | O=C(N[C@H]1COc2ccc(CC(F)F)cc2C1)c1cc2n(n1)CCC(COC(F)F)O2 (single isomer, unassigned) [138 (isomer B)] | < 10 µM
5 | C[C@@H]1CCn2nc(C(=O)N[C@H]3COc4ccc(Br)cc4C3)cc2O1 [Example 89] | < 1 µM
6 | COc1cccc(-c2c(C(=O)N[C@H]3COc4ccccc4C3)nc3n2CC(C(F)(F)F)CC3)n1 (some centres unmarked) [Example 15] | < 1 µM
7 | N#Cc1ccc2c(c1)C[C@@H](NC(=O)c1cc3n(n1)CCC(COCc1cccc(F)c1)O3)CO2 (some centres unmarked) [Example 104] | < 1 µM
8 | N#Cc1ccc(-c2ccc3c(c2)C[C@@H](NC(=O)c2cc4n(n2)CCC(COCC(F)(F)F)O4)CO3)cn1 (some centres unmarked) [Example 132] | < 10 µM

same assay, conditions: human Nav1.7, automated patch clamp

Row | Structure (SMILES) | IC50
9 | O=C(N[C@H]1COc2ccc(COCC(F)(F)F)cc2C1)c1cc2n(n1)CCC(CN1CC(F)(F)C1)O2 (some centres unmarked) [Example 440] | < 10 µM
10 | N#CCc1cccc2c1CC(NC(=O)c1cn3c(n1)CCC(C(F)(F)F)C3)CO2 (centres unmarked) [Example 297] | < 10 µM
11 | O=C(c1cn2c(n1)CCC(c1cccnc1C(F)(F)F)C2)N1CCCC1c1ccccc1 (centres unmarked) [Example 315] | < 10 µM
12 | O=C(N[C@H]1COc2ccc(CC(F)F)cc2C1)c1cc2n(n1)CCC(C(F)(F)F)O2 (single isomer, unassigned) [173 (isomer B)] | < 10 µM
13 | O=C(N[C@H]1COc2ccc(CCOCC(F)(F)F)cc2C1)c1cc2n(n1)CCC(C(F)(F)F)O2 (some centres unmarked) [Example 397] | < 1 µM
14 | COc1ccc(C2CCn3nc(C(=O)N[C@H]4COc5ccc(Cl)cc5C4)cc3O2)cn1 (some centres unmarked) [Example 371] | < 1 µM
15 | O=C(N[C@H]1COc2ccc(C(F)(F)F)cc2C1O)c1cc2n(n1)CC(CCOCC(F)(F)F)O2 (single isomer, unassigned) [600 (isomer A)] | < 10 µM
16 | O=C(N[C@H]1COc2ccc(C(F)(F)F)cc2C1)c1cc2n(n1)CC(CCNCC(F)(F)F)O2 (single isomer, unassigned) [230 (isomer B)] | < 10 µM
17 | N#Cc1ccc2c(c1)C[C@@H](NC(=O)c1cc3n(n1)CC(CCOC(F)(F)F)O3)CO2 (single isomer, unassigned) [209 (isomer A)] | < 10 µM
18 | COC1c2cc(C(F)(F)F)ccc2OC[C@@H]1NC(=O)c1cc2n(n1)CC(COCC(F)(F)F)O2 (some centres unmarked) [Example 569] | < 1 µM
19 | N#Cc1ccc2c(c1)C[C@@H](NC(=O)c1cc3n(n1)CCC(COCCC(F)(F)F)O3)CO2 (some centres unmarked) [Example 418] | < 10 µM
20 | Cc1cnc(-c2ccc3c(c2)C[C@@H](NC(=O)c2cc4n(n2)CC(COCC(F)(F)F)O4)CO3)cn1 (single isomer, unassigned) [194 (isomer A)] | < 10 µM
21 | CN1Cc2nc(C(=O)N3CCC(Oc4cccc(C(F)(F)F)n4)C3)cn2CC1c1cccc(OC(F)(F)F)c1 (centres unmarked) [Example 335] | < 10 µM
22 | Cn1ccc(-c2ccc3c(c2)C[C@@H](NC(=O)c2cc4n(n2)CC(CCOCC(F)(F)F)O4)CO3)n1 (single isomer, unassigned) [206 (isomer A)] | < 1 µM
23 | CC(C)(F)C1CCn2nc(C(=O)N[C@H]3COc4ccc(C#N)cc4C3)cc2O1 (single isomer, unassigned) [547 (isomer B)] | < 10 µM
24 | CC1(COCC2CC2)CCn2nc(C(=O)N[C@H]3COc4ccc(C#N)cc4C3)cc2O1 (some centres unmarked) [Example 419] | < 10 µM
25 | N#Cc1ccc2c(c1)C[C@@H](NC(=O)c1cc3n(n1)CCC(C(O)C(F)(F)F)O3)CO2 (some centres unmarked) [Example 417] | < 10 µM
26 | CN(C)CCOCc1ccc2c(c1)C[C@@H](NC(=O)c1cc3n(n1)CCC(c1ccccc1F)O3)CO2 (some centres unmarked) [Example 369] | < 10 µM
27 | O=C(N[C@H]1COc2ccc(C(F)(F)F)cc2C1)c1cc2n(n1)CC(CCN1CC(F)(F)C1)O2 (some centres unmarked) [Example 235] | < 10 µM
28 | O=C(N[C@H]1COc2ccccc2C1)c1nc2n(c1-c1ccccc1)CC(C(F)(F)F)CC2 (some centres unmarked) [Example 299] | < 1 µM
29 | CCOc1ncccc1C1CCn2nc(C(=O)N[C@H]3COc4ccc(C#N)cc4C3)cc2O1 (some centres unmarked) [Example 372] | < 1 µM
30 | O=C(N[C@H]1COc2ccc(Cl)cc2C1)c1cc2n(n1)CCC(COCC1CCOCC1)O2 (some centres unmarked) [Example 413] | < 1 µM
31 | O=C(N[C@H]1COc2ccc(CCOC(F)F)cc2C1)c1cc2n(n1)CCC(C(F)F)O2 (single isomer, unassigned) [165 (isomer B)] | < 10 µM
32 | O=C(N[C@H]1COc2ccc(C(F)(F)F)cc2C1O)c1cc2n(n1)CC(CCCOCC(F)(F)F)O2 (single isomer, unassigned) [616 (isomer B)] | < 10 µM
33 | O=C(N[C@H]1COc2ccc(-c3cnccn3)cc2C1)c1cc2n(n1)CC(CCOC(F)F)O2 (single isomer, unassigned) [223 (isomer A)] | < 10 µM
34 | CCOC(C)c1ccc2c(c1)C[C@@H](NC(=O)c1cc3n(n1)CCC(c1ccccc1F)O3)CO2 (some centres unmarked) [Example 365] | < 10 µM

Now from value to compound:

Row | IC50 | Structure (SMILES)
35 | < 1 µM | O=C(N[C@H]1COc2ccc(COCC(F)(F)F)cc2C1)c1cc2n(n1)CCC(C1CCOC1)O2 (some centres unmarked) [Example 630]
36 | < 10 µM | O=C(N[C@H]1COc2ccc(C(F)(F)F)cc2C1)c1cc2n(n1)CCC(C1CCOC1)O2 (some centres unmarked) [Example 612]
37 | < 1 µM | O=C(N[C@H]1COc2ccc(C(F)(F)F)cc2C1)c1cc2n(n1)CCC(COCC1(F)CC1)O2 (some centres unmarked) [Example 533]
38 | < 10 µM | O=C(NCC1COc2ccc(Cl)cc2C1)c1cc2n(n1)CCC(COC(F)(F)F)O2 (centres unmarked) [Example 542]
39 | < 10 µM | Cc1cccc(-c2c(C(=O)N[C@H]3COc4ccc(C(F)(F)F)cc4C3)nn3c2NCCC3)n1 [Example 524]
40 | < 10 µM | O=C(N[C@H]1COc2ccc(C(F)(F)F)cc2C1OCC(F)(F)F)c1cc2n(n1)CCC(C(F)F)O2 (some centres unmarked) [Example 536]
41 | < 1 µM | O=C(N[C@H]1COc2ccc(C(F)(F)F)cc2C1F)c1cc2n(n1)CCC(OCC(F)(F)F)CO2 (some centres unmarked) [Example 679]
42 | < 1 µM | O=C(N[C@H]1COc2ccc(C(F)(F)F)cc2C1)c1nn2c(c1-c1cccc(COCC(F)(F)F)n1)COCC2 [Example 520]
43 | < 10 µM | O=C(N[C@H]1COc2ccc(C(F)(F)F)cc2C1)c1cc2n(n1)CCN(CC1CCOCC1)C2 [Example 653]
44 | < 1 µM | O=C(N[C@H]1COc2ccc(C(F)(F)F)cc2C1F)c1cc2n(n1)CCN(CC1CCO1)C2 (some centres unmarked) [Example 646]
45 | < 10 µM | O=C(N[C@H]1COc2ccc(C(F)(F)F)cc2C1O)c1cc2n(n1)CC(CSCC(F)(F)F)O2 (some centres unmarked) [Example 587]
46 | < 1 µM | O=C(N[C@H]1COc2ccc(C(F)(F)F)cc2C1F)c1cc2n(n1)CCN(CC1CCCOC1)C2 (some centres unmarked) [Example 672]
47 | < 1 µM | O=C(N[C@H]1COc2ccc(COCC(F)(F)F)cc2C1)c1cc2n(n1)CCC(C1COCCO1)O2 (some centres unmarked) [Example 631]
48 | < 1 µM | O=C(NC1COc2ccc(F)c(F)c2C1)c1cc2n(n1)CC(CCOCC(F)(F)F)O2 (centres unmarked) [Example 629]
49 | < 1 µM | O=C(N[C@H]1COc2ccc(COCC(F)(F)F)cc2C1)c1cc2n(n1)CC(COCCOCC(F)(F)F)O2 (some centres unmarked) [Example 661]
50 | < 1 µM | COC1c2cc(C(F)(F)F)ccc2OC[C@@H]1NC(=O)c1cc2n(n1)CC(CCOCC(F)(F)F)O2 (some centres unmarked) [Example 621]
51 | < 10 µM | N#Cc1ccc2c(c1)C[C@@H](NC(=O)c1cc3n(n1)CCC(C(F)(F)F)CO3)CO2 (some centres unmarked) [Example 483]
52 | < 1 µM | Cn1cc(-c2ccc3c(c2)C[C@@H](NC(=O)c2cc4n(n2)CC(CCOC2CCC2)O4)CO3)cn1 (some centres unmarked) [Example 473]
53 | < 10 µM | O=C(N[C@H]1COc2ccc(C(F)(F)F)cc2C1)c1cc2n(n1)CCN(CCOCC(F)F)C2 [Example 666]
54 | < 1 µM | O=C(N[C@H]1COc2ccc(Cl)cc2C1)c1cc2n(n1)CC(C(F)(F)COCC1CC1)O2 (some centres unmarked) [Example 449]
55 | < 1 µM | O=C(N[C@H]1COc2ccc(COCC(F)(F)F)cc2C1)c1cc2n(n1)CC(CC1CCOCC1)O2 (mixture of isomers) [Example 605]
56 | < 10 µM | O=C(N[C@H]1COc2ccc(C(F)(F)F)cc2C1O)c1cc2n(n1)CCC(COCC1CC1)O2 (some centres unmarked) [Example 559]
57 | < 10 µM | O=C(N[C@H]1COc2ccc(Cl)cc2C1)c1cc2n(n1)CCC(OCCOCC(F)(F)F)CO2 (some centres unmarked) [Example 682]
58 | < 10 µM | Cc1c(C(=O)N[C@H]2COc3ccc(Cl)cc3C2)nn2c1OC(C)(C)C2 [Example 446]
59 | < 1 µM | O=C(N[C@H]1COc2ccc(C(F)(F)F)nc2C1)c1cc2n(n1)CCC(c1ccccc1F)O2 (some centres unmarked) [Example 550]
